biological target: NADH:ubiquinone oxidoreductase (Complex I) (Bos taurus, UniProt P03887+P17694+P42026); experiment: inhibitory potency for NADH:ubiquinone oxidoreductase activity in vitro using bovine heart electron transport particles; assay type: biochemical; details: bovine heart electron transport particles
Description: This primary library was screened for inhibitory potency against NADH:ubiquinone oxidoreductase activity as described below. […] As described below, a series of focused libraries were then synthesized using a combination of solid and solution phase chemistry in an attempt to evaluate particular structural sub-regions (denoted I-IV in FIG. 9) of the lead structure, thus allowing structure activity relationships to be developed.
(§1) SAR optimization was carried out on each of the four regions (I-IV) of interest guided by the inhibitory potency for NADH:ubiquinone oxidoreductase activity in vitro using bovine heart electron transport particles (see Singer (Singer, T. P. (1974). In Methods of Biochemical Analysis (Glick, D. ed., Wiley New York), 22, pp. 123-175) for details).
as §1, with “FIG. 15 is a graphical summary of structure activity trends observed for benzopyran-based inhibitors of NADH:ubiquinone oxidoreductase. SAR” for “SAR”, “T.P.” for “T. P.”

Sequence of NADH:ubiquinone oxidoreductase (Complex I) (P03887 whole entry): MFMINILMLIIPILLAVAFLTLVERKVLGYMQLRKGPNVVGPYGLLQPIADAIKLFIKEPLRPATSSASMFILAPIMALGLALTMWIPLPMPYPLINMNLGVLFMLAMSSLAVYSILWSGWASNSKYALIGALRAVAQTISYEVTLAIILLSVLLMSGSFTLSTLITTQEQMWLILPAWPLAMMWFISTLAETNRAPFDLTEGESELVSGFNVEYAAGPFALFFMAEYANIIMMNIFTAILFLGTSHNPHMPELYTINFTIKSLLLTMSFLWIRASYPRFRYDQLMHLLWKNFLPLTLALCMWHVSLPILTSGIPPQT
Sequence of NADH:ubiquinone oxidoreductase (Complex I) (P42026 38-216): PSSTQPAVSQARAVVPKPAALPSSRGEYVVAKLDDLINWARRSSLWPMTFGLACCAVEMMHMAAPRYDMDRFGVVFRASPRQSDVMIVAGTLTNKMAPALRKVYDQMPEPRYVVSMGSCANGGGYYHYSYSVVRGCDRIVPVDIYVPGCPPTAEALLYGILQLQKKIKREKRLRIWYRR
Sequence of NADH:ubiquinone oxidoreductase (Complex I) (P17694 34-463): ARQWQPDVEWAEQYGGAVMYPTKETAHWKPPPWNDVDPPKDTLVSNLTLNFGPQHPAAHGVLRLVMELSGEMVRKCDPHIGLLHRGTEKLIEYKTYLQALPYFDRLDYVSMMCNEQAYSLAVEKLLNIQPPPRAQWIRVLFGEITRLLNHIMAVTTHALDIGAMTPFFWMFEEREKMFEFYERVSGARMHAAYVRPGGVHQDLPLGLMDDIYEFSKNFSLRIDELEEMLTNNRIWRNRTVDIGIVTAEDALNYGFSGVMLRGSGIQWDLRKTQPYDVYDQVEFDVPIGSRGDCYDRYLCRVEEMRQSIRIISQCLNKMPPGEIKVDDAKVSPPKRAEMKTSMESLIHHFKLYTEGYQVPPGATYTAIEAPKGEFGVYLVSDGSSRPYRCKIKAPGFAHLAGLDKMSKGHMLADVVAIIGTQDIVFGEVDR

Row | Structure (SMILES) | IC50 [nM]
1 | COc1ccc(COC(=O)c2ccc3c(c2)C=CC(C)(C)O3)cc1OC [Compound 42] | 220
2 | COc1cc(CC(=O)c2ccc3c(c2)C=CC(C)(C)O3)cc(OC)c1OC [Compound 158] | 39
3 | COc1cc(COC(=O)c2ccc3c(c2)CCC(C)(C)O3)cc(OC)c1OC [Compound 140] | 53
4 | C=C(Cc1cc(OC)c(OC)c(OC)c1)c1ccc2c(c1)CCC(C)(C)O2 [Compound 167] | 18
5 | COc1cc(COC(=O)c2ccc3c(c2)C=CC(C)(C)O3)cc(OC)c1OC [Compound 55] | 55
6 | COc1cc(CC(=C(F)F)c2ccc3c(c2)CCC(C)(C)O3)cc(OC)c1OC [Compound 169] | 48
7 | COc1cc(CC(=O)c2ccc3c(c2)CCC(C)(C)O3)cc(OC)c1OC [Compound 165] | 24
8 | C=C(Cc1cc(OC)c(OC)c(OC)c1)c1ccc2c(c1)C=CC(C)(C)O2 [Compound 163] | 19
9 | COc1cc(CC(=C(Cl)Cl)c2ccc3c(c2)CCC(C)(C)O3)cc(OC)c1OC [Compound 168] | 2700
10 | COc1cc(CSc2ccc3c(c2)C=CC(C)(C)O3)cc(OC)c1OC [Compound 178] | 43

same assay, conditions: relative to parent/lead compound

Row | Structure (SMILES) | inhibitory activity
11 | COc1cc(CC(=O)c2ccc3c(c2)CCC(C)(C)O3)cc(OC)c1OC [Compound 165] | almost twice as active as the parent olefin

tested on: Complex I; experiment: Complex I activity in in vitro assays (literature, Fang/Casida); assay type: biochemical; details: ratio of IC50 values
Description: Novel lead compounds were identified through the screening of natural product-like combinatorial libraries. Separation of the constituents of this resin provided the major components rotenone (1, FIG. 2) and deguelin (7, FIG. 3) along with minor constituents, including dehydrodeguelin (8), oxadehydrodeguelin (9), lonchocarpusone (10), 4-hydroxylonchocarpene (11), 4-hydroxy-3-methoxylonchocarpene (12), stilbenes 13-15, and isoflavones 16-18 (FIG. 3) among others. […] Despite the diversity in these bridging units, all of the compounds (7-18) inhibited Complex I activity in in vitro assays (Fang, N.; Casida, J. E. J. Nat. Prod. 1999, 62, 205-210; Fang, N.; et al. Chem. Res. Toxicol. 1997, 10, 853-858). […] Given this effect, it was envisioned that screening a benzopyran-based combinatorial library wherein this “bridge” unit was varied (i.e. structure 19, FIG. 3) might lead to the identification of interesting structure activity relationships (SAR), and potentially to new lead compounds in this series.

Row | Structure (SMILES) | fold more active than lonchocarpusone [fold]
12 | COc1cc2c(cc1OC)[C@@H]1C(=O)c3ccc4c(c3O[C@@H]1CO2)C=CC(C)(C)O4 [deguelin] | ~500

tested on: Complex I; experiment: not given; details: natural products from Cubé resin; cited from earlier work

Row | Structure (SMILES) | IC50 [nM]
13 | COc1cc(OC)c(C2COc3c(ccc4c3C=CC(C)(C)O4)C2=O)cc1OC (centres unmarked) [lonchocarpusone] | 3300
14 | COc1cc2c(cc1OC)[C@@H]1C(=O)c3ccc4c(c3O[C@@H]1CO2)C=CC(C)(C)O4 [deguelin] | 6.9

From patent publication US7410998B2, “Inhibitors of NADH:ubiquinone oxidoreductase” (The Scripps Research Institute, priority 2000, dated 2008)
